The experiment deals with T1, Pyrazinamidase/nicotinamidase PncA (Mycobacterium tuberculosis, UniProt Q50575).
T1 sequence (Q50575 whole entry): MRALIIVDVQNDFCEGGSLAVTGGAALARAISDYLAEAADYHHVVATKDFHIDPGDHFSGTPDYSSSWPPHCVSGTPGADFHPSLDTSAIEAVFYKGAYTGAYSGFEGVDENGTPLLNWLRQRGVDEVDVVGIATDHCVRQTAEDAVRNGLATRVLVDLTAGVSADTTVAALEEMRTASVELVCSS
Briefly: Enzyme Assay. Here is the method:
Enzyme activity measurement by a coupled assay. initial velocities for the reaction of MtPncA were determined by monitoring the loss of absorbance at 340 nm associated with oxidation of NADH to NAD by L-glutamic dehydrogenase (GDH) to produce glutamate from alpha-ketoglutarate.
`O=Cc1cnccn1` [PncA Inhibitor, 1] returned a Ki of 1.5 µM.

Consider `O=C(c1cccnc1)C(F)(F)F` [PncA Inhibitor, 3], for which the Ki was 420 µM.

With `OCc1cccnc1` [PncA Inhibitor, 4], the Ki stood at 63 µM.

Regarding `N#Cc1cccnc1` [PncA Inhibitor, 5], the Ki stood at 140 µM.

`N#Cc1cnccn1` [PncA Inhibitor, 6] registered a Ki of 61 µM.

`O=Cc1cccnc1` [PncA Inhibitor, 2]: the Ki came to 0.3 µM.

These data come from BindingDB's records for doi:10.1021/bi1011157 (Albert Einstein College of Medicine, 2010).
